Test results as given in patent publication US20030161799A1, “Practical and humane method for armpit odor care” (priority 2002, published 2003).
Read-outs that look alike come from different tables or passages of the source.

Columns and labels:
axillary malodor = test: topical treatment of axillary malodor on the skin; type: in vivo, human; settings: for effect against axillary malodors: topical application to armpits, applicants' own experiments; for outcome of treatment of repeated infections: overnight
Description: Non-prescription azoles sold in groceries are intended for treating feet or vaginal fungal infections. Essentially the same compositions are often sold for feet and vaginal applications under different labels and in different forms. For axillary use, we strongly prefer them as creams.
In our experiments, we treated the armpits, then switched to all new underwear, and rigorously sterilized it with chlorine-based bleaches after every use. […]
A person, low perspiration, axillary malodor since puberty. […] Now uses peroxide bleach all the time.

[1] = skin tolerability on armpit application
Description: (§1) Undecylenic acid, salicylic acid and peroxides suffer from certain disadvantages.

[2] = in vivo
Description: as §1

SMILES: O=C(O)c1ccccc1O [salicylic acid]
- effect against axillary malodors (axillary malodor): functional
- adverse skin effects [1]: may cause pain, burning and irritations

SMILES: Clc1ccccc1C(c1ccccc1)(c1ccccc1)n1ccnc1 [clotrimazole]
- time at which the odor disappears (axillary malodor; mature axillary malodor, cream two times a day, two weeks treatment): between the fourth and the seventh day

SMILES: OO [hydrogen peroxide]
- effect against axillary malodors (axillary malodor): functional

SMILES: C=CCCCCCCCCC(=O)O [Undecylenic acid]
- effect against axillary malodors (axillary malodor): functional
- adverse skin effects [2]: may cause pain, burning and irritations

SMILES: Cc1cccc(N(C)C(=S)Oc2ccc3ccccc3c2)c1 [tolnaftate]
- effect against axillary malodors (axillary malodor): some effect

SMILES: Clc1ccc(COC(Cn2ccnc2)c2ccc(Cl)cc2Cl)c(Cl)c1 (stereo not shown) [miconazole]
- outcome of treatment of repeated infections (axillary malodor; person, two times in a row): cured
- outcome of first treatment of axillary malodor (axillary malodor; person, two applications per day, seven days in a row): Successfully treated

SMILES: Clc1ccc(C(Cn2ccnc2)OCc2ccsc2Cl)c(Cl)c1 (stereo not shown) [tioconazole]
- outcome of treatment of repeated infections (axillary malodor; person, one-time treatment): cured
- effectiveness compared with clotrimazole (axillary malodor; vaginal tioconazole product, topical on armpits): much more effective than clotrimazole

SMILES: O=C(OOC(=O)c1ccccc1)c1ccccc1 [benzoyl peroxide]
- effect against axillary malodors (axillary malodor): functional

SMILES: CN(C/C=C/C#CC(C)(C)C)Cc1cccc2ccccc12 [Terbinafine]
- effect against axillary malodors (axillary malodor): some effect
